# Values of other authors, collected in US7081474B2, “Drugs to improve synaptic transmission” (priority 1994, dated 2006).
# Like-named read-outs stand apart in the source and are kept apart here. No end group written: not given here.
# Assays:
# [1] = test system: LTP in hippocampus (CA1 field, dentate gyrus); details: cited from earlier work
# [2] = test system: slices of rat hippocampus; details: cited from earlier work
# [3] = test system: experimental animals; details: cited from earlier work
# [4] = test system: rats; details: infused into lateral ventricles; cited from earlier work
compound,measurement,setting,value
CC(=O)N[C@@H](CC(C)C)C(=O)N[C@@H](CC(C)C)C(=O)N[C@H](C=O)CCCNC(=N)N [leupeptin],LTP on electrical stimulation of the hippocampus,[1]; infusion into lateral ventricles of rats,no longer produces LTP
"N[C@@]1(C(=O)O)CC[C@@H](C(=O)O)C1 [1S,3R-ACPD, aminocyclopentane-1S,3R-decarboxylate]",effect on synaptic responses,[2]; brief application in vitro,long lasting potentiation
same,deleterious effects,[3]; administered directly into the brain,seizures and convulsions
CC[N+](CC)(CC)CC [tetraethylammonium],effect on synaptic responses,[2],long lasting potentiation
"mast-cell-degranulating peptide: K+ channel blocker (IKCNCKRHVIKPHICRKICGKN; ends and bridges not checked; cysteine pairing not given here; UniProt P01499 28-49, looked up)",effect on synaptic responses,[2],long lasting potentiation
same,deleterious effects,[3]; in vivo,seizures and convulsions
"NC(CCCP(=O)(O)O)C(=O)O (stereo not shown) [APV, 2-amino-5-phosphonopentanoate]",effect on LTP induction,[1]; CA1 field and dentate gyrus,prevent LTP from taking place
same,effect on LTP already established,[1],no effect
same,learning of the task,[4],prevented from learning the task
O=C(O)CN(CCN(CC(=O)O)CC(=O)O)CC(=O)O [EDTA],induction of LTP,[1]; intracellular injection,blocked
